This assay deals with T1, PSMA (Homo sapiens, UniProt Q04609).
T1 construct: endogenous in cells; host or cells: LNCaP cells
Briefly: In vitro PSMA competitive binding assay, LNCaP cells, [18F]DCFPyL radioligand. The conditions noted are these: [18F]DCFPyL 0.1 nM, read-out: PSMA binding affinity (Ki). The protocol:
Inhibition constants (Ki) to PSMA were measured by in vitro competition binding assays using [^18F]DCFPyL as the radioligand. LNCaP cells which were plated onto a 24-well poly-D-lysine coated plate for 48 h (400,000/well). Growth medium was removed and replaced with HEPES buffered saline (50 mM HEPES, pH 7.5, 0.9% sodium chloride). After 1 h, [^18F]DCFPyL (0.1 nM) was added to each well (in triplicate) containing varied concentrations ([…]) of tested compounds The assay mixtures were incubated for 1 h at 37° C. with gentle agitation followed by two washes with cold HEPES buffered saline. A trypsin solution (0.25%, 400 μL) was then added to each well to harvest the cells. Radioactivity was measured by gamma counting and Ki values calculated using the ‘one site—fit Ki’ built-in model in Prism 8 (GraphPad).

Ki data for one compound are collected here from patent US20250186627A1, “RADIOLABELED COMPOUNDS TARGETING THE PROSTATE-SPECIFIC MEMBRANE ANTIGEN” (PROVINCIAL HEALTH SERVICES AUTHORITY, priority 2022, published 2025).

T1 sequence (Q04609 whole entry): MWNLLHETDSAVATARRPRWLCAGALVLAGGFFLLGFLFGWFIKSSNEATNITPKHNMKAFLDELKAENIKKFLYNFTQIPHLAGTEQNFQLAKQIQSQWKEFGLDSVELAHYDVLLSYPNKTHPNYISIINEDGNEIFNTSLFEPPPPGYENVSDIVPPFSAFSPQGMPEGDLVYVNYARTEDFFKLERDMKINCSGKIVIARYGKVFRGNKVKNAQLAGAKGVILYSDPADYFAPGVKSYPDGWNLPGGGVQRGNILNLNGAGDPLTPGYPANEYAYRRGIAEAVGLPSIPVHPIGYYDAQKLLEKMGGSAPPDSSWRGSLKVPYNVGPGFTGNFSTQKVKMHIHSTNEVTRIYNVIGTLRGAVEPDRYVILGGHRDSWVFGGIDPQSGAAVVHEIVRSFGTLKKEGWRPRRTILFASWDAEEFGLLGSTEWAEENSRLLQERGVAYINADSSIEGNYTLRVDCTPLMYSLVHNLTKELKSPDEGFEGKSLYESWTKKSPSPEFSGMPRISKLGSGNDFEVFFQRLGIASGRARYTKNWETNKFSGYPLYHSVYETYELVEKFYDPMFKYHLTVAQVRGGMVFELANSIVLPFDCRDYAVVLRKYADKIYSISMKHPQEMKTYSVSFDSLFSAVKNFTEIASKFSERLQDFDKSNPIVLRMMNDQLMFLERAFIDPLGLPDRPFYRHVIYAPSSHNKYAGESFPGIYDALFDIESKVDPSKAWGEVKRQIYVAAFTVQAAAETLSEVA

With `O=C(O)CCC[C@H](NC(=O)N[C@@H](CCCCNC(=O)[C@H](Cc1c2ccccc2cc2ccccc12)NC(=O)C1CCC(NC(=O)CN2CCN(CC(=O)O)CCN(CC(=O)O)CCN(CC(=O)O)CC2)CC1)C(=O)O)C(=O)O` (stereo partly shown) [CCZ02012], the Ki (as a rule, a dissociation constant, usually derived from enzyme kinetics or from competition with a known ligand) was found to be 1.67 nM.
